Test results reported in article PMC6132360 (Clinical and Translational Science, 2018).
Where two headings read alike, the source gives them in different places.

Legend:
5‐AR types 1 and 2 = experiment: Effect of dutasteride on in vitro testosterone metabolism in human hepatocytes; type: cell-based; details: 200 nM dutasteride with 50 μM testosterone, 60 minutes; for change in metabolite formation/levels with dutasteride co‐treatment: human hepatocytes
[1] = for AUC0‐24h at T800, fold higher than with T200: 800 mg vs 200 mg oral testosterone
UGT2B7 = UGT2B7 (Homo sapiens, UniProt P16662); details: scaled by absolute UGT2B abundance in the liver
UGT2B17 = target: T1, UGT2B17 (Homo sapiens, UniProt O75795); type: in vitro ADME; details: scaled by absolute UGT2B abundance in the intestine
T1 sequence (O75795 24-530): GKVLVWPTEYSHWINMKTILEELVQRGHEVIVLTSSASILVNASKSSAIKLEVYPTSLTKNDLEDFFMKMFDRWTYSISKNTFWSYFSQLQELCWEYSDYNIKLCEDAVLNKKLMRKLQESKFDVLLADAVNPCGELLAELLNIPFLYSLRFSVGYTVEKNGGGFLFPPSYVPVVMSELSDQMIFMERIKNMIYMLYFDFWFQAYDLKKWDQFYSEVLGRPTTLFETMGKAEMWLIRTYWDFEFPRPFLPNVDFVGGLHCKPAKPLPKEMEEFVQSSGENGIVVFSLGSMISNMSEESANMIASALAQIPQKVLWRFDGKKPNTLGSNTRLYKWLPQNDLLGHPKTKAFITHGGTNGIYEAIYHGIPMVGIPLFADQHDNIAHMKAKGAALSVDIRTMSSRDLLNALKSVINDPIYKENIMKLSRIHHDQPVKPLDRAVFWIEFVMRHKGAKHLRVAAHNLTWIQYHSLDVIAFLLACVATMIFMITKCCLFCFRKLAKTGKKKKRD

human hepatocytes = experiment: In vitro metabolite formation from testosterone in primary human hepatocyte; type: in vitro ADME
[2] = oral; cited from earlier work
testosterone production = details: normal men, single injection 300 μg/kg subcutaneous; cited from earlier work

Sequence of UGT2B7 (P16662 24-529): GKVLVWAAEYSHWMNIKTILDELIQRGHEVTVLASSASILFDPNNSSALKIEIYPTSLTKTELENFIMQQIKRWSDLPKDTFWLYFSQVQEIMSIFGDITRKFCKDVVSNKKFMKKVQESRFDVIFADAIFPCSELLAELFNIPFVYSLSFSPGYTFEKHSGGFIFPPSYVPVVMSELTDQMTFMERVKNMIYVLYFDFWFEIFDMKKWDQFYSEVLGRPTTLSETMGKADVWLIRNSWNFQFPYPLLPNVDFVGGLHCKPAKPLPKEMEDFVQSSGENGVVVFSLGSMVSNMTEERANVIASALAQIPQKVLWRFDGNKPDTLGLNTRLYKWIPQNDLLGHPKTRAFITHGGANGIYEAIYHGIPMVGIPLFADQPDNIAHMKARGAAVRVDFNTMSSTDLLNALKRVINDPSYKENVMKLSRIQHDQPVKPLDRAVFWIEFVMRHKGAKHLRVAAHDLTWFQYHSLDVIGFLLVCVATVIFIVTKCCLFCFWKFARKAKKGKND

C[C@]12CC[C@H]3[C@@H](C[C@@H](O)C4=CC(=O)CC[C@@]43C)[C@@H]1CC[C@@H]2O [6β‐OH‐T, 6β‐hydroxytestosterone]
change in metabolite formation/levels with dutasteride co‐treatment (5‐AR types 1 and 2): significant decreases
detection in serum ([1]; after oral testosterone): only detectable in a few samples

C[C@]12CC[C@@H](O)C[C@@H]1CC[C@@H]1[C@@H]2CC[C@]2(C)C(=O)CC[C@@H]12 [A, androsterone]
change in metabolite formation/levels with dutasteride co‐treatment (5‐AR types 1 and 2): significant decreases
predicted contribution of UGT2B7 to hepatic glucuronidation (UGT2B7): 100%
predicted contribution of UGT2B17 to intestinal glucuronidation (UGT2B17): 70%

C[C@]12CCC(=O)C=C1CC[C@@H]1[C@@H]2CC[C@]2(C)C(=O)CC[C@@H]12 [AED, androstenedione]
in vitro formation from testosterone (human hepatocytes): 46%
change in metabolite formation/levels with dutasteride co‐treatment (5‐AR types 1 and 2): No significant changes
AUC0‐24h at T800, fold higher than with T200 [1]: 4.2 fold
circulating levels higher in T200+D and T800+D as compared with testosterone alone [1]: 5.7 fold
Tmax ([1]; male, human, in vivo, 200 mg, T200): 2 h
Tmax ([1]; male, human, in vivo, T200+D): 2 h

C[C@]12CCC(=O)C[C@@H]1CC[C@@H]1[C@@H]2CC[C@]2(C)[C@@H](O)CC[C@@H]12 [DHT, dihydrotestosterone]
change in metabolite formation/levels with dutasteride co‐treatment (5‐AR types 1 and 2): significant decreases
AUC0‐24h at T800, fold higher than with T200 [1]: 3.3 fold
Tmax ([1]; male, human, in vivo, 800 mg, T800): 2 h
AUC(0-t) ([1]; male, human, in vivo, AUC0–24h, T800+D, average, n = 7): 0.0266 µM·h
Tmax ([1]; male, human, in vivo, T200+D): 4 h

C[C@]12CC[C@@H](O)C[C@H]1CC[C@@H]1[C@@H]2CC[C@]2(C)C(=O)CC[C@@H]12 [Etio, etiocholanolone]
circulating levels higher in T200+D and T800+D as compared with testosterone alone [1]: 2.3 fold
predicted contribution of UGT2B17 to intestinal glucuronidation (UGT2B17): 90%

C[C@]12CC[C@H]3[C@@H](CCC4=CC(=O)CC[C@@]43C)[C@@H]1CC[C@@H]2O [Testosterone, reference compound]
bioavailability [2]: 2–8%
predicted contribution of UGT2B17 to intestinal glucuronidation (UGT2B17): 100%

C[C@]12C=CC(=O)N[C@@H]1CC[C@@H]1[C@@H]2CC[C@]2(C)[C@@H](C(=O)Nc3cc(C(F)(F)F)ccc3C(F)(F)F)CC[C@@H]12 [dutasteride, reference compound]
inhibition of 5‐AR types 1 and 2 mediated metabolism of testosterone (5‐AR types 1 and 2): complete inhibition

acyline
duration of suppression of testosterone production (testosterone production): ≥ 15 days
